This passage reports LD10 results from patent publication US8211940B2 (Debiopharm S.A., priority 2001, dated 2012).

Where two headings read alike, the source gives them in different places.

This data set deals with CD-1 mice. The source says: Lethal doses LD10 of a cytostatic active substance determinated in mice is generally considered as being a significative correlation with the maximum tolerated doses (MTD) in man.

As for `O=C1[O][Pt]2([NH]C3CCCCC3[NH]2)[O]C1=O` (stereo not drawn) [Example 1, cis-oxalate (trans l-1,2-cyclohexanediamine)-platinum (II)], the LD10 result is, setting by setting: (same solution with addition of oxalic acid at a final concentration of 0.2 mM (second group)) “around 14.4”; (solution of the oxaliplatin active substance alone (first group)) “around 18.0 mg/kg”.
